Source: patent US8466273B2, “Hepatitis C virus inhibitors” (priority 2008, dated 2013)

What was measured:
[1] = tested on: FLR3-1, R6FLR-N and JFH1 cells; experiment: Cytotoxic activity of inhibitors by WST assay in FLR3-1, R6FLR-N and JFH1 cells; format: cell-based
Description: HCV-replicating cells were incubated with a BGT-1 inhibitor tiagabine or an AKR1C1 inhibitor flufenamic acid, and the inhibitory effect against HCV replication was evaluated by a luciferase assay. Tiagabine was dissolved in sterile distilled water at a final concentration of 1 mM, and flufenamic acid was dissolved in 1% EtOH at a final concentration of 1 μM-1 mM. The assay was performed after a reaction period of 24 hours in expectation of the rapid action of the inhibitors. The HCV-replicating cells used were FLR3-1, R6FLR-N (both genotype 1b) and JFH1 (genotype 2a: Kato et al., Gastroenterology, 2003, 125 (6):1808-17). The cells incubated in the medium alone were used as “controls”. The experiment was performed in triplicate, and the average±S.D. was graphically shown. Statistical analysis was performed by Student's t-test.
(§1) In the same manner as described above, the cytotoxic activity of tiagabine (1 mM), NNC05-2090 (0.1-10 μM), and flufenamic acid (1 μM-1 mM) against HCV-replicating cells was evaluated by the WST assay. The experiment was performed in triplicate, and the average±S.D. was graphically shown. Statistical analysis was performed by Student's t-test.

[2] = tested on: HCV replication in R6FLR-N cells; experiment: HCV replication activity by luciferase assay in R6FLR-N replicon cells; format: cell-based, Hepatitis C virus (genotype 1b); conditions: for replication of HCV (luminescence relative to control siRNA group defined as 100%): 4.2 nM siRNA, 72 hours post-treatment; for minimal effective concentration showing a significant inhibitory effect against HCV replication vs. the control siRNAs: data not shown
Source text: The inhibitory effect against HCV replication can be determined by using HCV replicon cells (Lohmann et al., Science, 1999, 285 (5424):110-113). HCV replicon cells bear a luciferase gene as an indicator gene fused to a nonstructural protein (NS) region necessary for the replication of HCV. HCV replication activity can be measured by luciferase assays. Viral inhibitory activity can also be evaluated by using HCV infection systems (Wakita et al., Nat. Med. 2005, 11 (7), 791-796).
In this study, HCV-replicating cells (FLR3-1 and R6FLR-N) established from Huh-7 replicon cells (Lohmann et al., Science, 1999, 285 (5424):110-3) containing a luciferase-neo fusion gene and three HCV nonstructural protein regions (NS3-NS5b) after G418 selection were used. The use of these cells allows HCV replication activity to be measured by a luciferase assay. The HCV-replicating cells (FLR3-1 or R6FLR-N) were reverted by treatment with interferon α (100 IU/ml) for 72 hours or more to lower the HCV replication level and used as control cells (see Guo J T, Bichko V V, Seeger C., J. Virol. 2001, 75 (18):8516-23). The cells were incubated in Dulbecco's modified Eagle's medium (DMEM) GlutaMax I containing penicillin (100 U/ml), streptomycin (100 μg/ml), G418 (500 μg/ml), and 10% FCS (SIGMA).
The reverse transfection of the siRNAs was performed as follows. In each well of a 96-well plate (Falcon) containing Opti-MEM I medium was added each siRNA at a final concentration of 4.2, 12.6, and 25.2 nM and the plate was gently shaken. Lipofectamine™ RNAiMAX was mixed before use and added to the well (0.1 μl/well), and the plate was gently shaken and allowed to stand for 10-20 minutes at room temperature. R6FLR-N cells were plated at a density of 5×10^3 cells/well and incubated at 37° C. in 5% CO2 for 5 hours. The culture medium was replaced with 10% DMEM-Glutamax, and the cells were further incubated at 37° C. in 5% CO2. A plate containing the medium and Lipofectamine alone without siRNA (“Lipo”) and a plate containing the medium alone (“No”) were used as controls.
After incubation for 24, 48, and 72 hours, the HCV replication activity was measured by a luciferase assay. The replication activity is expressed relative to the luminescence intensity in the groups treated with the control siRNAs (“Ctrl”) defined as 100%. The experiment was performed in triplicate, and the average±S.D. was graphically shown. Statistical analysis was performed by Student's t-test.
FLR3-1 cells and R6FLR-N cells were incubated with a rabbit anti-BGT-1 polyclonal antibody (abcam) or a mouse anti-AKR1C1 polyclonal antibody (Abnova) for 72 hours. After incubation, the relative luminescence unit (RLU) was measured by a luciferase assay to evaluate the inhibitory activity against HCV replication. Normal rabbit serum was used as a control of the anti-BGT-1 antibody, and normal mouse serum was used as a control of the anti-AKR1C1 antibody. Each antibody was diluted at 1:100-1:10000 in 3% BSA/PBS. The experiment was performed in triplicate, and the average±S.D. was graphically shown. Statistical analysis was performed by Student's t-test.
R6FLR-N cells were also incubated with another BGT-1 inhibitor NNC05-2090 for 24-72 hours, and then analyzed by a luciferase assay in the same manner. NNC05-2090 was dissolved in DMSO at a final concentration of 0.1-10 μM (FIG. 7).

R6FLR-N cells = experiment: Cytotoxic activity against HCV-replicating cells (Cell Counting Kit-8 / WST), R6FLR-N; format: cell-based
Description: In the same manner as described above, the siRNA were reversely transfected into R6FLR-N cells in a 96-well plate (Falcon). After incubation for 24, 48, and 72 hours, the number of viable cells was counted by a chromogenic reaction at 37° C. for 1 hour using Cell Counting Kit-8 (DOJINDO) following the manufacturer's protocol. The results are expressed relative to the cell survival rate in the groups treated with the control siRNAs defined as 100%. The experiment was performed in triplicate, and the average±S.D. was graphically shown. Statistical analysis was performed by Student's t-test.
FLR3-1 cells and R6FLR-N cells were incubated with the rabbit anti-BGT-1 polyclonal antibody or mouse anti-AKR1C1 polyclonal antibody described above for 72 hours. After incubation, the OD450/650 was measured by a chromogenic reaction at 37° C. for 1 hour using Cell Counting Kit-8 (DOJINDO) following the manufacturer's protocol. Normal rabbit serum was used as a control of the anti-BGT-1 antibody, and normal mouse serum was used as a control of the anti-AKR1C1 antibody. Each antibody was diluted at 1:100-1:10000 in 3% BSA/PBS. The experiment was performed in triplicate, and the average±S.D. was graphically shown. Statistical analysis was performed by Student's t-test.
as §1

AKR1C1 gene = experiment: Inhibition of AKR1C1 gene expression by siRNA, RT-PCR; format: cell-based, Homo sapiens; conditions: data not shown
Description: (§2) The expression of BGT-1 and AKR1C1 and the inhibition of the expression by their siRNAs were analyzed by Western blotting and PCR.
(§3) The inhibition of the expression of the BGT-1 gene and the AKR1C1 gene by their siRNAs was also verified by RT-PCR using the following primers (data not shown): […]

BGT-1 gene = experiment: Inhibition of BGT-1 gene expression by siRNA, RT-PCR; format: cell-based, Homo sapiens; conditions: data not shown
Description: as §2, §3

Cc1ccsc1C(=CCCN1CCC[C@@H](C(=O)O)C1)c1sccc1C [tiagabine]
cytotoxic activity against HCV-replicating cells (WST assay) ([1]; 1 mM, 24 hours, FLR3-1, R6FLR-N, JFH1 cells): significantly injured HCV-replicating cells in only FLR3-1 cells

siRNA of AKR1C1: siRNA of the AKR1C1 gene, 5′-AAGUAAAGCUUUAGAGGCCACCAAA-3′, nucleotides 93-117 (chemistry not given here)
replication of HCV (luminescence relative to control siRNA group defined as 100%) ([2]; R6FLR-N cells): 40±1%
minimal effective concentration showing a significant inhibitory effect against HCV replication vs. the control siRNAs [2]: 0.5 nM
cell survival rate (relative to control siRNA group defined as 100%) (R6FLR-N cells; 4.2 nM siRNA, 72 hours post-treatment): 53±18%
inhibition of the expression of the AKR1C1 gene by RT-PCR (AKR1C1 gene): verified

O=C(O)c1ccccc1Nc1cccc(C(F)(F)F)c1 [flufenamic acid]
OD value as % of the value of the 0 μM group (WST assay) ([1]; 100 μM, all types of HCV-replicating cells): ≤ 80%

COc1ccccc1C1(O)CCN(CCCn2c3ccccc3c3ccccc32)CC1 [NNC05-2090, 1-(3-(9H-carbazol-9-yl)-1-propyl)-4-(2-methoxyphenyl)-4-piperidinol, reference compound]
RLU vs. the vehicle group (DMSO) ([2]; 10 μM, 24 hours, R6FLR-N cells): 30%
OD value as % of the vehicle group (WST assay) (R6FLR-N cells; 3 μM, 48 hours post-treatment): about 26%
OD value as % of the vehicle group (WST assay) (R6FLR-N cells; 10 μM, 24 hours post-treatment): about 23%

siRNA of BGT-1: siRNA of the BGT-1 gene, 5′-CAACAAGAUGGAGUUUGUGCUGUCA-3′, nucleotides 120-144 (chemistry not given here)
replication of HCV (luminescence relative to control siRNA group defined as 100%) ([2]; R6FLR-N cells): ≤ 10±4%
minimal effective concentration showing a significant inhibitory effect against HCV replication vs. the control siRNAs [2]: 0.5 nM
cytotoxic activity against HCV-replicating cells (R6FLR-N cells; any siRNA concentration tested (4.2, 12.6, 25.2 nM)): any significant cytotoxic activity was not detected
inhibition of the expression of the BGT-1 gene by RT-PCR (BGT-1 gene): verified
